What is called Kd is the constant that tells how readily two partners part at equilibrium. A high value points to a looser complex. The term IC50 denotes the midpoint of a concentration-inhibition curve. The low end stands for greater potency, the high end for weaker potency.

In one experiment the target is c-Cbl (residues 47-435) (Homo sapiens (Human), UniProt P22681). The experiment in a line: c-Cbl SPR assay. The experiment is classed as binding. The conditions noted are these: 20° C. The essentials: (§1)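 Values derive from a 1:1 model fitted to multicycle kinetics on captured protein (1300-1500 RU), using six 2-fold concentrations, 60 s contact and dissociation of 120-1200 s. In the chaser format, kd comes from a single-exponential fit of % site occupancy over time.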

The next experiment concerns the target Cbl-b (Homo sapiens (Human), UniProt Q13191). Description: Cbl-b LCK Ub TR-FRET assay (Cbl-b Lck HTRF). The conditions noted are these: for IC50: Cbl-b LCK Ub TR-FRET, Example 121; for (fold-selectivity) Cbl-b and C-Cbl Selectivity: ratio C-cbl Lck HTRF IC50 / Cbl-b Lck HTRF IC50. The experiment is classed as biochemical. In short, it runs like this: (§2)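 Detection reagents added, brief spin, 20 min RT. IC50 fit normalized to no-LCK (low) and DMSO (high) controls.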
(In general: In TR-FRET formats the signal depends on donor and acceptor labels being close together.)

In another experiment the target is c-Cbl (Homo sapiens (Human), UniProt P22681). Description: C-Cbl LCK Ub TR-FRET assay (C-cbl Lck HTRF). It is filed as biochemical. In short, it runs like this:
as §2

The target in experiment [1] is Human Cbl-b (residues 40-426) (Homo sapiens (Human), UniProt Q13191). The experiment in a line: Cbl-b SPR assay. The experiment is classed as binding. The conditions noted are these: for Fold of selectivity: C-cbl SPR Kd vs Cbl-b SPR Kd; for Kd: SPR, 20° C. In short, it runs like this:
as §1
A general note: Surface plasmon resonance follows binding to a sensor surface in real time, without labels.

Chain of Cbl-b (Q13191 40-426): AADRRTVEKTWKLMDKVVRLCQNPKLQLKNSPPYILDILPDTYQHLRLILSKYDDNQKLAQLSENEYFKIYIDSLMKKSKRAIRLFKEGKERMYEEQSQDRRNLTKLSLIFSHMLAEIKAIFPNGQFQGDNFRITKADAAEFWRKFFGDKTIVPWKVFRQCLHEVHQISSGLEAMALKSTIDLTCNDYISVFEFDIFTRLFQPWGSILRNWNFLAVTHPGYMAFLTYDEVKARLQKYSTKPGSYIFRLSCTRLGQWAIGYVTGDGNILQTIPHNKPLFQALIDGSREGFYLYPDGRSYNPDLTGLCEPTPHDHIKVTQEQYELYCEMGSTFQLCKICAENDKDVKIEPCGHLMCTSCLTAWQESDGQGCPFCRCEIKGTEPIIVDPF
Chain of Human Cbl-b (residues 40-426) (Q13191 40-426): as above
Chain of c-Cbl (P22681 47-435): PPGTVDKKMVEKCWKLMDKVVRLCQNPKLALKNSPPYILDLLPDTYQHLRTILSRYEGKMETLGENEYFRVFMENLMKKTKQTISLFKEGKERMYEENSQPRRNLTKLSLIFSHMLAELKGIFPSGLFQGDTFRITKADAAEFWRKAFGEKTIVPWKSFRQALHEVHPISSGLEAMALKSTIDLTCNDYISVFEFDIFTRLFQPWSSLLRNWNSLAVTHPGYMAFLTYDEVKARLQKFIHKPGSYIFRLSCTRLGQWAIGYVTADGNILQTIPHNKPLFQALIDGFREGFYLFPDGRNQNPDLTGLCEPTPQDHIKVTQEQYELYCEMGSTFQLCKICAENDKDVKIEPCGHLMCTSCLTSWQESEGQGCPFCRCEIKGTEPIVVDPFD
Chain of c-Cbl (residues 47-435) (P22681 47-435): as above

The molecule `CO[C@H]1C[C@](c2cccc(N3Cc4c(cc(CNC(C)C)cc4C(F)(F)F)C3=O)c2)(c2nncn2C)C1` [Compound 419, 6-((isopropylamino)methyl)-2-(3-((1r,3r)-3-methoxy-1-(4-methyl-4H-1,2,4-triazol-3-yl)cyclobutyl)phenyl)-4-(trifluoromethyl)isoindolin-1-one] had a Kd at c-Cbl (residues 47-435) of 240 nM. At Cbl-b, 29 nM corresponded to half-maximal inhibition (IC50); the “(fold-selectivity) Cbl-b and C-Cbl Selectivity” value was determined as 6.7x. The same molecule had an IC50 on c-Cbl of 190 nM. In experiment [1], the Fold of selectivity is given as 8.2× and the Kd came out at 32 nM.

Take `CO[C@H]1C[C@](c2cccc(N3Cc4c(cc(CNCC(C)C)cc4C(F)(F)F)C3=O)c2)(c2nncn2C)C1` [Compound 421, 6-((isobutylamino)methyl)-2-(3-((1r,3r)-3-methoxy-1-(4-methyl-4H-1,2,4-triazol-3-yl)cyclobutyl)phenyl)-4-(trifluoromethyl)isoindolin-1-one]: the Kd on c-Cbl (residues 47-435) is 24 nM. At Cbl-b, half-maximal inhibition (IC50) was put at 6.5 nM; the “(fold-selectivity) Cbl-b and C-Cbl Selectivity” value is 2.6x. For the same molecule, half-maximal inhibition against c-Cbl (IC50) was put at 17 nM. In experiment [1], this molecule displayed a Fold of selectivity of 14× and a dissociation constant (Kd) of 1.7 nM.

For the molecule `CO[C@H]1C[C@](c2cccc(N3Cc4c(cc(CN5CC(O)C5)cc4C(F)(F)F)C3=O)c2)(c2nncn2C)C1` [Compound 422, 6-((3-hydroxyazetidin-1-yl)methyl)-2-(3-((1r,3r)-3-methoxy-1-(4-methyl-4H-1,2,4-triazol-3-yl)cyclobutyl)phenyl)-4-(trifluoromethyl)isoindolin-1-one], the Kd on c-Cbl (residues 47-435) was found to be 1800 nM. In addition, on Cbl-b, it took 220 nM to reach half-maximal inhibition (IC50); the “(fold-selectivity) Cbl-b and C-Cbl Selectivity” value turned out to be 7.2x. The same molecule gave an IC50 against c-Cbl of 1600 nM. For the same molecule, in experiment [1], the Fold of selectivity stood at 5.3× and the Kd was 340 nM.

At c-Cbl (residues 47-435), `CO[C@H]1C[C@](c2cccc(N3Cc4c(cc(CN5CC6(CC6)C5)cc4C(F)(F)F)C3=O)c2)(c2nncn2C)C1` [Compound 423, 6-(5-azaspiro[2.3]hexan-5-ylmethyl)-2-(3-((1r,3r)-3-methoxy-1-(4-methyl-4H-1,2,4-triazol-3-yl)cyclobutyl)phenyl)-4-(trifluoromethyl)isoindolin-1-one] gave a Kd of 840 nM. Besides, on Cbl-b, 100 nM corresponded to half-maximal inhibition (IC50); the “(fold-selectivity) Cbl-b and C-Cbl Selectivity” value is listed as 5.0x. The IC50 at c-Cbl turned out to be 500 nM. In addition, in experiment [1], the Fold of selectivity came to 8.7× and the Kd was found to be 96 nM.

`CCC(NCc1cc2c(c(C(F)(F)F)c1)CN(c1cccc([C@]3(c4nncn4C)C[C@H](OC)C3)c1)C2=O)C(=O)OC` (stereo partly drawn) [Compound 425, methyl 2-(((2-(3-((1r,3r)-3-methoxy-1-(4-methyl-4H-1,2,4-triazol-3-yl)cyclobutyl)phenyl)-3-oxo-7-(trifluoromethyl)isoindolin-5-yl)methyl)amino)butanoate] displayed a Kd at c-Cbl (residues 47-435) of 1900 nM. On Cbl-b, inhibition was half-maximal at 130 nM (IC50); the “(fold-selectivity) Cbl-b and C-Cbl Selectivity” value is given as 6.8x. On c-Cbl, this molecule displayed an IC50 of 880 nM. In experiment [1], this molecule displayed a Fold of selectivity of 11× and a Kd of 170 nM.

As to `CO[C@H]1C[C@](c2cccc(N3Cc4c(cc(CNC5CC6(C5)CC6(F)F)cc4C(F)(F)F)C3=O)c2)(c2nncn2C)C1` (stereo partly drawn) [Compound 426, 6-(((1,1-difluorospiro[2.3]hexan-5-yl)amino)methyl)-2-(3-((1r,3r)-3-methoxy-1-(4-methyl-4H-1,2,4-triazol-3-yl)cyclobutyl)phenyl)-4-(trifluoromethyl)isoindolin-1-one], the Kd at c-Cbl (residues 47-435) was found to be 9.9 nM; in experiment [1], 6.6 nM. Besides, the results for the IC50 against Cbl-b and on c-Cbl were 13 nM and 60 nM, respectively. Moreover, at Cbl-b, the “(fold-selectivity) Cbl-b and C-Cbl Selectivity” value is listed as 4.6x. Moreover, the Fold of selectivity in experiment [1] turned out to be 15×.

`CO[C@H]1C[C@](c2cccc(N3Cc4c(cc(CNC5CC6C(C5)C6(F)F)cc4C(F)(F)F)C3=O)c2)(c2nncn2C)C1` (stereo partly drawn) [Compound 427, 6-(((6,6-difluorobicyclo[3.1.0]hexan-3-y)amino)methyl)-2-(3-((1r,3r)-3-methoxy-1-(4-methyl-4H-1,2,4-triazol-3-yl)cyclobutyl)phenyl)-4-(trifluoromethyl)isoindolin-1-one]: the figures for the Kd (at c-Cbl (residues 47-435); in experiment [1]) were 37 nM and 2.6 nM, respectively. Also, the IC50 amounted to 7 nM against Cbl-b and 22 nM against c-Cbl. Further, the “(fold-selectivity) Cbl-b and C-Cbl Selectivity” value on Cbl-b was found to be 3.1x. Besides, in experiment [1], the Fold of selectivity was determined as 14×.

The molecule `C[C@@H](NC1(C)CCC1)c1cc2c(c(C(F)(F)F)c1)CN(c1cccc([C@H](c3nncn3C)C3COC3)c1)C2=O` [Compound 444, 2-(3-((R)-(4-methyl-4H-1,2,4-triazol-3-yl)(oxetan-3-yl)methyl)phenyl)-6-((R)-1-((1-methylcyclobutyl)amino)ethyl)-4-(trifluoromethyl)isoindolin-1-one] gave a Kd at c-Cbl (residues 47-435) of 0.7 nM. On Cbl-b, 4.1 nM corresponded to half-maximal inhibition (IC50); the “(fold-selectivity) Cbl-b and C-Cbl Selectivity” value was 1.1x. It took 4.5 nM to reach half-maximal inhibition at c-Cbl (IC50). For the same molecule, in experiment [1], the Fold of selectivity came to 1.8× and the Kd was determined as 0.4 nM.

For `C[C@H](NC1(C)CCC1)c1cc2c(c(C(F)(F)F)c1)CN(c1cccc([C@H](c3nncn3C)C3COC3)c1)C2=O` [Compound 445, 2-(3-((R)-(4-methyl-4H-1,2,4-triazol-3-yl)(oxetan-3-yl)methyl)phenyl)-6-((S)-1-((1-methylcyclobutyl)amino)ethyl)-4-(trifluoromethyl)isoindolin-1-one], the affinity on c-Cbl (residues 47-435), expressed as Kd, was 23 nM. Further, on Cbl-b, the IC50 turned out to be 9.7 nM; the “(fold-selectivity) Cbl-b and C-Cbl Selectivity” value is 3.1x. The molecule also showed an IC50 at c-Cbl of 30 nM. Moreover, in experiment [1], the Fold of selectivity came to 4.7× and binding was characterised by a dissociation constant (Kd) of 4.8 nM.

Turning to `Cn1cnnc1[C@]1(c2cccc(N3Cc4c(cc(CNC5(C)CCC5)cc4C(F)F)C3=O)c2)C[C@H](Cl)C1` [Compound 446, 2-(3-((1s,3s)-3-chloro-1-(4-methyl-4H-1,2,4-triazol-3-yl)cyclobutyl)phenyl)-4-(difluoromethyl)-6-(((1-methylcyclobutyl)amino)methyl)isoindolin-1-one], the Kd at c-Cbl (residues 47-435) was found to be 6.6 nM; in experiment [1] it was 1.3 nM. The results for the IC50 against Cbl-b and against c-Cbl were 6.8 nM and 11 nM, respectively. At Cbl-b, the “(fold-selectivity) Cbl-b and C-Cbl Selectivity” value came to 1.7x. This molecule gave a Fold of selectivity in experiment [1] of 5.1×.

For the molecule `Cn1cnnc1[C@]1(c2cccc(N3Cc4c(cc(CNC5(C)CCC5)cc4C(F)F)C3=O)c2)C[C@@H](Cl)C1` [Compound 447, 2-(3-((1r,3r)-3-chloro-1-(4-methyl-4H-1,2,4-triazol-3-yl)cyclobutyl)phenyl)-4-(difluoromethyl)-6-(((1-methylcyclobutyl)amino)methyl)isoindolin-1-one], the Kd at c-Cbl (residues 47-435) amounted to 1.6 nM; in experiment [1], 0.3 nM. The IC50 is 4.5 nM at Cbl-b and 6.2 nM on c-Cbl. Also, on Cbl-b, the “(fold-selectivity) Cbl-b and C-Cbl Selectivity” value came to 1.4x. The same molecule registered a Fold of selectivity in experiment [1] of 5.3×.

Take `CO[C@H]1C[C@@](c2cccc(N3Cc4ccc(CNC5(C)CCC5)cc4C3=O)c2)(c2nncn2C)C1` [Compound 448, 2-(3-((1s,3s)-3-methoxy-1-(4-methyl-4H-1,2,4-triazol-3-yl)cyclobutyl)phenyl)-6-(((1-methylcyclobutyl)amino)methyl)isoindolin-1-one]: the Kd at c-Cbl (residues 47-435) was 2500 nM; in experiment [1], 420 nM. Further, the values for the IC50 on Cbl-b and on c-Cbl were 730 nM and 3900 nM, respectively. The “(fold-selectivity) Cbl-b and C-Cbl Selectivity” value on Cbl-b came to 5.5x. This molecule yielded a Fold of selectivity in experiment [1] of 5.8×.

Turning to `CO[C@H]1C[C@](c2cccc(N3Cc4ccc(CNC5(C)CCC5)cc4C3=O)c2)(c2nncn2C)C1` [Compound 449, 2-(3-((1r,3r)-3-methoxy-1-(4-methyl-4H-1,2,4-triazol-3-yl)cyclobutyl)phenyl)-6-(((1-methylcyclobutyl)amino)methyl)isoindolin-1-one], the Kd at c-Cbl (residues 47-435) worked out at 920 nM. In addition, at Cbl-b, the half-maximal inhibitory concentration (IC50) came to 220 nM; the “(fold-selectivity) Cbl-b and C-Cbl Selectivity” value is given as 5.4x. For the same molecule, the midpoint of inhibition on c-Cbl, the IC50, lay at 1200 nM. In experiment [1], the Fold of selectivity came to 8.0× and the Kd amounted to 120 nM.

At c-Cbl (residues 47-435), `Cn1cnnc1[C@]1(c2cccc(N3Cc4c(cc(CNC5(C)CCC5)cc4C(F)(F)F)C3=O)c2)C[C@@H](OC2CC2)C1` [Compound 450, 2-(3-((1r,3r)-3-cyclopropoxy-1-(4-methyl-4H-1,2,4-triazol-3-yl)cyclobutyl)phenyl)-6-(((1-methylcyclobutyl)amino)methyl)-4-(trifluoromethyl)isoindolin-1-one] had a Kd of 19 nM. Moreover, on Cbl-b, the IC50 came to 5.8 nM; the “(fold-selectivity) Cbl-b and C-Cbl Selectivity” value is reported as 4.0x. The molecule also showed an IC50 against c-Cbl of 23 nM. In addition, in experiment [1], the Fold of selectivity is listed as 7.2× and binding was characterised by a dissociation constant (Kd) of 2.6 nM.

As for `Cn1cnnc1[C@]1(c2cccc(N3Cc4c(Cl)cc(CNC5(C)CCC5)cc4C3=O)c2)C[C@@H](Cl)C1` [Compound 451, 4-chloro-2-(3-((1r,3r)-3-chloro-1-(4-methyl-4H-1,2,4-triazol-3-yl)cyclobutyl)phenyl)-6-(((1-methylcyclobutyl)amino)-methyl)isoindolin-1-one], the affinity on c-Cbl (residues 47-435), expressed as Kd, was 1.5 nM. Moreover, on Cbl-b, 4.2 nM corresponded to half-maximal inhibition (IC50); the “(fold-selectivity) Cbl-b and C-Cbl Selectivity” value was 1.6x. For the same molecule, the IC50 on c-Cbl worked out at 6.6 nM. Also, in experiment [1], the Fold of selectivity was found to be 6.0× and the Kd is 0.25 nM.

The values above are taken from patent US12187709B2 (Genentech, Inc., priority 2021, dated 2025).
